In PubChem BioAssay (NCI):
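Exposure lasted 48 hours, with cells grown in 96-well plates and compounds tested at five concentrations. GI50 = concentration required for 50% inhibition of growth. TGI marks complete inhibition of growth.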

How the values were obtained:
Experiment in all cases: NCI-60 cell line screen, 48 h
[1] = system: HOP-62 NSCLC
[2] = system: HOP-92 NSCLC
[3] = system: UACC-62 melanoma
[4] = system: SK-MEL-5 melanoma
[5] = system: SR leukemia
[6] = system: MDA-MB-435
[7] = system: SNB-19 CNS
[8] = system: TK-10 renal
[9] = system: UACC-257 melanoma
[10] = system: KM12 colon

SMILES	GI50 [1]	TGI [1]	GI50 [2]	TGI [2]	GI50 [3]	TGI [3]	GI50 [4]	TGI [4]	GI50 [5]	TGI [5]	GI50 [6]	TGI [6]	GI50 [7]	TGI [7]	GI50 [8]	TGI [8]	GI50 [9]	TGI [9]	GI50 [10]	TGI [10]
COc1cccc(C2NC(=S)NC(C)=C2C(=O)Nc2ccc(F)c(Cl)c2)c1 (centres undefined)	> 50 µM	> 50 µM	> 50 µM	> 50 µM	29.3 µM	> 50 µM	13.3 µM	32.9 µM	15.8 µM	40.2 µM	27.3 µM	> 50 µM	> 50 µM	> 50 µM	30.1 µM	> 50 µM	10.4 µM	30.7 µM	18.2 µM	> 50 µM
NC(=O)C(NC=O)c1ccccc1 (centres undefined)		> 100 µM		> 100 µM		> 100 µM		> 100 µM		> 100 µM		> 100 µM		> 100 µM		> 100 µM		> 100 µM		> 100 µM
COc1cccc(C2C3=C(COC3=O)N(CCO)c3cc4c(cc32)OCCO4)c1 (centres undefined)	0.287 µM	> 50 µM	0.0348 µM	2.89 µM		> 50 µM	0.0474 µM	1.23 µM	0.0271 µM		0.0179 µM	0.0767 µM		> 15.8 µM	0.891 µM		0.0467 µM	> 50 µM	0.0798 µM	1.85 µM
C#COc1cccc(Nc2ncnc3ncc(NC(=O)CCl)cc23)c1	> 62.5 µM	> 62.5 µM	> 62.5 µM	> 62.5 µM	> 36.1 µM	> 62.5 µM	> 51.2 µM	> 62.5 µM		> 62.5 µM	> 49.8 µM	> 62.5 µM	> 43.3 µM	> 62.5 µM	62 µM	> 62.5 µM	> 62.5 µM	> 62.5 µM	> 28.4 µM	> 62.5 µM
COc1cc2c3c(n(C)c(=O)c2cc1OC)-c1cc2c(cc1/C3=C\CCCBr)OCO2		17.1 µM	92.4 µM	> 100 µM	7.55 µM	28.9 µM	> 69.5 µM	> 100 µM	13.3 µM	> 100 µM	> 100 µM	> 100 µM	23.4 µM	> 65.8 µM	15.2 µM	> 53.4 µM	> 41.5 µM	> 100 µM	> 100 µM	> 100 µM
CC(=O)OCC1OC(OC2=C(CC=C(Cl)Cl)C(=O)c3ccccc3C2=O)C(OC(C)=O)C(OC(C)=O)C1OC(C)=O (centres undefined)	18.5 µM	34.4 µM	0.222 µM	1.59 µM	2.85 µM	11.2 µM	4.32 µM	17 µM	3.11 µM	> 100 µM	4.38 µM	16 µM	11.8 µM	24.8 µM	9.61 µM	21.5 µM	8.45 µM	21.4 µM	3.26 µM	10.1 µM
O=C(NNC(=O)c1ccncc1)c1ccncc1		> 100 µM		> 100 µM		> 100 µM		> 100 µM		> 100 µM		> 100 µM		> 100 µM		> 100 µM		> 100 µM		> 100 µM
O=S1(=O)CS(=O)(=O)OCCCO1		> 100 µM		> 100 µM		> 100 µM		> 100 µM		> 100 µM		> 100 µM		> 100 µM		> 100 µM		> 100 µM		> 100 µM
C/C(=C\CCc1ccoc1)CC/C=C(\C)CCCN1CCC(CO)CC1	3.39 µM	9.6 µM	1.44 µM	6.16 µM	1.77 µM	3.74 µM	1.5 µM	2.84 µM	1.66 µM	4.29 µM	3.07 µM	10.8 µM	4.61 µM	19.4 µM	2.41 µM	6.54 µM	2.16 µM	5.12 µM	2.45 µM	5.41 µM
c1ccc(-c2nn(-c3ccccc3)[n+](-c3cccc4ccccc34)n2)cc1	1.39 µM	33.2 µM	1.15 µM	7.68 µM	1.14 µM	3.59 µM	0.674 µM	4.1 µM	0.644 µM	7.93 µM	0.961 µM	2.67 µM	2.01 µM	> 100 µM	8.53 µM	73.6 µM	0.48 µM	8.18 µM	0.701 µM	11.3 µM
